{"source": "patent US20240360215A1", "about": "“ANTI-CD19 ANTIBODY IN THE TREATMENT OF CNS LYMPHOMA” (The Regents of the University of California, priority 2023, published 2024)", "assay_type_in_all_cases": "in vivo, human", "key": {"secondary CNS lymphoma": {"test_system": "secondary CNS lymphoma", "assay": "illustrative treatment of first patient (large-B cell lymphoma, CNS relapse), MRI follow-up", "conditions": "for severe treatment-related toxicities requiring inpatient management: earlier therapies", "description": "Staging documented concomitant right adrenal involvement. Treatment at an outside institution consisted of six cycles of high-dose methotrexate (HD-MTX) intercalated with rituximab, cyclophosphamide, adriamycin, vincristine, prednisone (R-CHOP) plus intrathecal cytarabine, also six cycles. At 7 months there was multifocal CNS progression and the patient was transferred to a tertiary care center where they received eight cycles of HD-MTX, six doses of temozolomide plus rituximab (MTR), consolidation with etoposide-ara-C (Soussain et al, J. Clin. Oncol 19:[…]; Rubenstein et al, J. Clin Oncol. 31:3061-8, 2013) followed by autologous stem cell transplantation and lenalidomide maintenance. However, at 6 months after transplantation, multifocal CNS progression was again evident on magnetic resonance imaging (MRI). This second relapse was treated with repeat HD-MTX (eight cycles) plus rituximab followed by focal irradiation to a refractory lesion in the right postcentral gyrus, followed by pomalidomide maintenance, resulting in a CNS response duration of nearly 2 years. A third isolated CNS relapse manifested by new multifocal lesions with mild left-to-right midline shift.\nIbrutinib was therefore discontinued and the patient continued on lenalidomide (10 mg/day), now co-administered with intravenous tafasitamab (12 mg/kg), without dexamethasone, following the schedule of the L-MIND study. […] The patient continues twice monthly infusion of tafasitamab, plus lenalidomide days 1-21, and remains in radiographic remission, both in brain and systemically, at 22 months since starting this combination."}, "primary CNS lymphoma": {"test_system": "primary CNS lymphoma", "assay": "illustrative treatment of second patient (multifocal primary CNS lymphoma, large B-cell type), MRI follow-up", "procedure": "At first relapse they were re-treated with MTR followed by lenalidomide maintenance (5 mg/day) with intermittent high-dose methotrexate/rituximab every 4 months, resulting in sustained disease control on MRI for 3 years. At progression on lenalidomide they were re-challenged with MTR but immediately experienced growth of new lesions in the left frontal lobe, centrum semiovale and splenium of the corpus callosum. […] However, the corpus callosal lesion was resistant. […] (For image, see, Rauschecker et al., Br J Haematol, 201:154-157, first published January 23 2023)."}, "relapsed CNS lymphoma": {"test_system": "relapsed CNS lymphoma", "assay": "phase I trial of tafasitamab plus lenalidomide in relapsed CNS lymphoma (NCT05351593)", "conditions": "Patient 2; lenalidomide 15 mg/day, off study", "procedure": "This patient's disease previously progressed on lenalidomide monotherapy at a higher dose of 15 mg/day.\nThe role of tafasitamab in these cases is evident based on prior resistance to lenalidomide, pomalidomide and rituximab.\nThree were treated at the 10 mg lenalidomide dose level and one at the 15 mg lenalidomide dose level. […] The longest response duration was six months.\nIllustrative responses of patient 2 in this study are depicted in FIG. 1."}}, "note": "Entries after “also recorded” stand apart in the source; their conditions may differ."}
{"smiles": "Nc1cccc2c1CN(C1CCC(=O)NC1=O)C2=O", "note": "(stereo not shown) [lenalidomide]", "values": [{"measurement": "time to multifocal CNS progression on MRI after transplantation", "setting": "secondary CNS lymphoma; lenalidomide maintenance after autologous stem cell transplantation", "value": 6, "unit": "months"}, {"measurement": "sustained disease control on MRI", "setting": "primary CNS lymphoma; first relapse, MTR then lenalidomide maintenance 5 mg/day with intermittent high-dose methotrexate/rituximab every 4 months", "value": 3, "unit": "years"}, {"measurement": "response duration", "setting": "primary CNS lymphoma; lenalidomide maintenance 5 mg/day, days 1-21, after complete response with MTR", "value": 17, "unit": "months"}, {"measurement": "disease response to earlier lenalidomide monotherapy", "setting": "relapsed CNS lymphoma", "value": "progressed; also recorded: refractory"}]}
{"smiles": "Nc1cccc2c1C(=O)N(C1CCC(=O)NC1=O)C2=O", "note": "(stereo not shown) [pomalidomide]", "values": [{"measurement": "severe treatment-related toxicities requiring inpatient management", "setting": "secondary CNS lymphoma", "value": "two independent episodes of pneumonia, associated with respiratory syncytial virus and later, aspergillosis"}, {"measurement": "CNS response duration", "setting": "secondary CNS lymphoma; pomalidomide maintenance after repeat HD-MTX plus rituximab and focal irradiation", "value": "~2", "unit": "years"}]}
{"smiles": "C=CC(=O)N1CCC[C@@H](n2nc(-c3ccc(Oc4ccccc4)cc3)c3c(N)ncnc32)C1", "note": "[ibrutinib]", "values": [{"measurement": "severe treatment-related toxicities requiring inpatient management", "setting": "secondary CNS lymphoma", "value": "pancytopenia, gastrointestinal bleeding, and necrotizing gangrenous cholecystitis"}]}
